One experiment deals with T1, androgen receptor (Mesocricetus auratus, UniProt A0A1U7QL32).
T1 construct: a sebaceous gland in flank organ was excised and homogenized; from tissue; host or cells: male Syrian hamster flank organ sebaceous gland, 16 hours after castration; supernatant of homogenate centrifuged at 30,000 rpm for 1 hour
T1 sequence (A0A1U7QL32 1-900): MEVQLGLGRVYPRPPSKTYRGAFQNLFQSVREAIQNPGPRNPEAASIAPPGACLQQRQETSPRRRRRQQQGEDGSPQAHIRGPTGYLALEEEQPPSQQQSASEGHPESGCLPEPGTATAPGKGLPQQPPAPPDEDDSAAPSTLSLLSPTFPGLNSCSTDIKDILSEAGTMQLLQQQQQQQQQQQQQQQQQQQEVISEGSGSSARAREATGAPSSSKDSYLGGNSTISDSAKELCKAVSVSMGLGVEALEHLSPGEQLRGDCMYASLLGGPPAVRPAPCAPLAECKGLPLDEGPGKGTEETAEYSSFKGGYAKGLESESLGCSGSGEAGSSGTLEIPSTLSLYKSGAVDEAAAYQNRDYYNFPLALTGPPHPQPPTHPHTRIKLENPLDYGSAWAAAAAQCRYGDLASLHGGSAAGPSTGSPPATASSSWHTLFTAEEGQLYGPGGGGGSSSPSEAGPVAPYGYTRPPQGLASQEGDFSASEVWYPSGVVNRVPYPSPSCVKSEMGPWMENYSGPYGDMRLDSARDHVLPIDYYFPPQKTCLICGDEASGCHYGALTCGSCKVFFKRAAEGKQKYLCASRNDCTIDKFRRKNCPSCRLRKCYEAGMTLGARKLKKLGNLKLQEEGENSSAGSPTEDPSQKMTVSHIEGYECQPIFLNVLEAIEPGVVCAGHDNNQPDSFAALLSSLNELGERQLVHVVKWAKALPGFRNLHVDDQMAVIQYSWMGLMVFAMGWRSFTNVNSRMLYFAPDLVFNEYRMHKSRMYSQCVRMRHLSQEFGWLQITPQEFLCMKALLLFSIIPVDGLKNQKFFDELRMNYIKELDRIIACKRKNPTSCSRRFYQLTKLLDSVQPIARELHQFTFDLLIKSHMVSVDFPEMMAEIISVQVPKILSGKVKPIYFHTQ
Kind of experiment: Inhibition of [3H]R1881 binding with androgen receptor (Pharmacological Test Example 1; also Test Example 2). As to conditions: for IC50: chemically synthesized xanthones, calculated from inhibition rate, 1 nM [3H]R1881, 0° C., 16 hours, read-out: Concentration for 50% Inhibition. More on the design: species or system male Syrian hamster (sebaceous gland in flank organ). How it is done: (a) Preparation of androgen receptor
From a male Syrian hamster 16 hours after castration, a sebaceous gland in flank organ was excised and homogenized in 5-10 times (volume) of 50 mM-Tris-HCl buffer (pH 7.4) containing 1.5 mM-EDTA, 1 mM-DTT, 10 mM-Na2 MoO4, and 10% (w/v) glycerol. The homogenate was centrifuged at 3,000 rpm and 0°-4° C. for 10 minutes to obtain the supernatant, which was further centrifuged at 30,000 rpm and 0°-4° C. for 1 hour to obtain the supernatant to be employed as androgen receptor.
(b) Determination of inhibitory activity
Then the mixture was added with a suspension (500 μl) of 0.5% charcoal and 0.05% dextran T-70. After standing at 0° C. for 10 minutes, the mixture was centrifuged at 3,000 rpm for 10 minutes. The supernatent (300 μl) was mixed with a liquid scintillator to measure the radioactivity due to binding of [^3 H]R1881 with the androgen receptor in scintillation counter. The inhibition rate of each extract was calculated according to the following equation.
Inhibition (%)=[(c-s)/c]×100 […]
c: specific binding amount of [^3 H]R1881 with androgen receptor without addition of test sample; and s: specific binding amount of [^3 H]R1881 with androgen receptor with addition of the test sample.

The subject of another experiment is 5α-reductase. As to conditions: reported in Jap. Pat. No. 60-126218 (A); cited from earlier work.

On to `O=c1c2c(O)cc(O)cc2oc2c(O)ccc(O)c12` [Test sample A, 1,3,5,8-Tetrahydroxyxanthone], for which, at androgen receptor (statement in words), the “inhibition of binding of 5α-DHT with androgen receptor” value is “shows the inhibition of binding of 5α-DHT with androgen receptor”.
As to `O=c1c2ccccc2oc2cc(O)cc(O)c12` [G], the IC50 on androgen receptor is 53 µM.
Take `O=c1c2c(O)cccc2oc2cc(O)cc(O)c12` [F]: the IC50 at androgen receptor is 20 µM.
Regarding `CC1(C)CC[C@]2(C(=O)O)CC[C@]3(C)C(=CC[C@@H]4[C@@]5(C)CC[C@H](O)C(C)(C)[C@@H]5CC[C@]43C)[C@@H]2C1` [oleanolic acid], in the experiment on 5α-reductase, the “inhibition of the activity of 5α-reductase” value was “showing the inhibition”.
As to `O=c1c2ccc(O)cc2oc2cccc(O)c12` [H], at androgen receptor, the IC50 is 7.6 µM.
On the same count and under the same terms, next, `O=c1c2ccc(O)cc2oc2cc(O)cc(O)c12` [E]: 4.1 µM; `O=c1c2cccc(O)c2oc2cc(O)cc(O)c12` [D]: 34 µM; `O=c1c2c(O)cc(O)cc2oc2cc(O)cc(O)c12` [B]: 5.1 µM.
For the compound `O=c1c2ccc(O)cc2oc2c(O)ccc(O)c12` [C], the IC50 on androgen receptor was 1.8 µM.
On to `O=c1c2c(O)cc(O)cc2oc2c(O)ccc(O)c12` [A], for which, on androgen receptor, the IC50 was 8 µM.

(Values after patent US4987150A, “Agent for inhibiting binding of 5-dihydro-testosterone with androgen receptor as well as process for obtaining same” (Kabushiki Kaisha Vitamin Kenkyusho, priority 1987, dated 1991).)
